Laboratory results from patent US8722849B2, “Polypeptides” (Novo Nordisk A/S, priority 2011, dated 2014).
≈ marks a conversion by molar mass, not a printed value. Like-named read-outs stand apart in the source and are kept apart here. Starred links: 1 amine or outer side, 2 acyl side, 3 side chain; linkers in the order of their positions; H or OH if unused. Positions of bridges follow the written chain, without caps; N, C: chain ends. Residues, ends and D or L forms follow the SMILES beside them. *: point of attachment. C20 diacid = O=C(O)CCCCCCCCCCCCCCCCCCC(=O)*; γGlu = O=C(O)[C@H](CCC(=O)[*:2])N[*:1]

Key:
[1] = molecular target: T1, rat amylin 3(a) receptor (rat calcitonin(a) receptor + rat RAMP3) (Rattus norvegicus, UniProt P32214+Q9JJ73); test: Assay (II)b functional cAMP FlashPlate assay, rat amylin receptor; assay type: cell-based; settings: Table 11
T1 construct: expressed in transfected cells; host or cells: BHK tk'ts 13
T1 sequence (P32214 25-479 isoform P32214-2 limits assumed): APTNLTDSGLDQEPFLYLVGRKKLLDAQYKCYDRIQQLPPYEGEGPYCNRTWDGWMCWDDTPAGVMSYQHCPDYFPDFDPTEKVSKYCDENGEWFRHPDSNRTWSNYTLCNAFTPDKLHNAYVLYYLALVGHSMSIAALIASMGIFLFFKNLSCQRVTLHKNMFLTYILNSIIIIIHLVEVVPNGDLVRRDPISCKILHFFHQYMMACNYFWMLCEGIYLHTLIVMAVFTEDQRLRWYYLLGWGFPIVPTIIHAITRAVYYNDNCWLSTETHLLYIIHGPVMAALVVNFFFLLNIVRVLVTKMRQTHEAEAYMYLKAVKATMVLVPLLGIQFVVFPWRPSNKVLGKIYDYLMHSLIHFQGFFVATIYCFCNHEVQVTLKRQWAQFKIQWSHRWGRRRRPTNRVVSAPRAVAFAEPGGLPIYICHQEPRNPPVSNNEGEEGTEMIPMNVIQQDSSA
T1 sequence (Q9JJ73 23-147 partner): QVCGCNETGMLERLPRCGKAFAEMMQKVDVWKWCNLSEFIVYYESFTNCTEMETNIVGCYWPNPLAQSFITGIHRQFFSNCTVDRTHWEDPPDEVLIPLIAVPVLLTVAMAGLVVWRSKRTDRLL
Excerpt: (§1) Assay (II)b—Rat Calcitonin and Rat Amylin Receptor Assays
(§2) Activation of calcitonin and amylin (coexpression of calcitonin receptor and receptor activity modifying proteins (RAMP)) receptors lead to increased intracellular concentrations of cAMP. In order to quantify the cAMP levels in transiently transfected cells the Adenylyl Cyclase Activation FlashPlate® Assay from […] was used. The basic principle of the FlashPlate® Assay is a competition between radioactive and non-radioactive cAMP generated by the cells for a fixed number of binding sites.
(§3) Construction of rat calcitonin(a)—and rat amylin 3(a)-receptor cells.
(§4) BHK tk'ts 13 cells were transiently transfected with either rat calcitonin (a) receptor or amylin 3 (a) receptor (rat calcitonin(a) receptor+ rat RAMP3) using FuGENE® 6 (ROCHE), according to the manufacturers recommendations.
(§5) 24 hours after transient transfection the cells (rat calcitonin(a)—or rat amylin 3(a)—receptor cells) were added (100.000 cells/well) to the 96 well FlashPlates® with samples or standard in FlashPlate stimulation buffer with IBMX and incubated for 30 min. Detection mix was created according to manufacturers protocol and scintillation measured after 3 h of incubation on TopCounter™ (Packard).

[2] = molecular target: T2, rat calcitonin (a) receptor (Rattus norvegicus, UniProt P32214); test: Assay (II)b functional cAMP FlashPlate assay, rat calcitonin receptor; assay type: cell-based; settings: Table 11; read-out: CTa receptor rat EC50
T2 construct: expressed in transfected cells; host or cells: BHK tk'ts 13
T2 sequence (P32214 25-479 isoform P32214-2 limits assumed): T1 sequence (P32214 25-479 isoform P32214-2 limits assumed)
Excerpt: as §1, §2, §3, §4, §5

[3] = Assay (IV) determination of solubility; assay type: physicochemical
In short: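 Stock ~500 nmol/ml in water; 1:1 with 100 mM buffer, pH 3.0–8.0 (glycylglycine ≤5.0, bistrispropane ≥6.0); 18 h RT; spin; HPLC quantitation of soluble polypeptide.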

[4] = molecular target: T3, human calcitonin receptor (Homo sapiens, UniProt P30988); test: Assay (II)a functional CRE-luciferase assay, human calcitonin receptor; assay type: cell-based; settings: Table 7; human calcitonin (CTa) receptor
T3 construct: expressed in transfected cells; host or cells: BHK570
T3 sequence (P30988 25-474): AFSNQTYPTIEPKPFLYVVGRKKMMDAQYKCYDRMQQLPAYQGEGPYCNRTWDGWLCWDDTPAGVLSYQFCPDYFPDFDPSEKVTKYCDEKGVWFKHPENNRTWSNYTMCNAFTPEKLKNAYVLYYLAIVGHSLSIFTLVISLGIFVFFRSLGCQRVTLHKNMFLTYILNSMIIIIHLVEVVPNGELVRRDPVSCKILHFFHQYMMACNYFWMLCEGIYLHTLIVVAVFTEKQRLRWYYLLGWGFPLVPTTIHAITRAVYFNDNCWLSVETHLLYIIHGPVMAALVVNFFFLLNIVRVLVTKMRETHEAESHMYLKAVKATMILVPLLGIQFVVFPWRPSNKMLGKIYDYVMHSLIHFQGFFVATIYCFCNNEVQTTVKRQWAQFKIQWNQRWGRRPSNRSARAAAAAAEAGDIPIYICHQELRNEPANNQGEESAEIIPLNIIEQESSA

[5] = molecular target: T4, human amylin receptor (amylin 3(a) receptor: human calcitonin receptor + RAMP-3) (Homo sapiens, UniProt O60896+P30988); test: Assay (II)a functional CRE-luciferase assay, human amylin receptor; assay type: cell-based; settings: Table 2; BHK amylin 3(a)-receptor/CRE-luc cells
T4 construct: expressed in transfected cells; host or cells: BHK570
T4 sequence (P30988 25-474): T3 sequence (P30988 25-474)
T4 sequence (O60896 24-148 partner): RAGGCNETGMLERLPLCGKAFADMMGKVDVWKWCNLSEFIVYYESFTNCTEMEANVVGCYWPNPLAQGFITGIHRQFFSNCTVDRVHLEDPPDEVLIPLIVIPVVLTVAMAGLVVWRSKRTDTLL

For `CC[C@H](C)[C@H](NC(=O)[C@@H]1CCCN1C(=O)CNC(=O)[C@H](Cc1ccccc1)NC(=O)[C@H](CO)NC(=O)[C@H](CO)NC(=O)[C@H](CO)NC(=O)[C@H](CO)NC(=O)[C@H](CCCNC(=N)N)NC(=O)[C@H](Cc1cnc[nH]1)NC(=O)[C@H](CC(C)C)NC(=O)[C@H](Cc1ccccc1)NC(=O)[C@H](CCC(=O)O)NC(=O)[C@H](C)NC(=O)[C@H](CC(C)C)NC(=O)[C@H](CCCNC(=N)N)NC(=O)[C@H](CCC(N)=O)NC(=O)[C@@H](NC(=O)[C@H](C)NC(=O)[C@@H]1CSSC[C@H](NC(=O)[C@H](Cc2cnc[nH]2)NC(=O)CC[C@H](NC(=O)CCCCCCCCCCCCCCCCCCC(=O)O)C(=O)O)C(=O)N[C@@H](CC(N)=O)C(=O)N[C@@H]([C@@H](C)O)C(=O)N[C@@H](C)C(=O)N[C@@H]([C@@H](C)O)C(=O)N1)[C@@H](C)O)C(=O)N[C@@H](CC(C)C)C(=O)N1CCC[C@H]1C(=O)N1CCC[C@H]1C(=O)N[C@H](C(=O)N[C@@H](CC(=O)O)C(=O)N[C@H](C(=O)NCC(=O)N[C@@H](CO)C(=O)N[C@@H](CC(=O)O)C(=O)N[C@H](C(=O)N[C@@H](Cc1ccc(O)cc1)C(N)=O)[C@@H](C)O)C(C)C)[C@@H](C)O` [Example 9, N-alpha-[(S)-4-Carboxy-4-(19-carboxynonadecanoylamino)butyryl]-[His1,Glu14,His17,Arg18,Ser21,Ser22,Asp31,Asp35]-pramlintide] ({C20 diacid-γGlu}-HCNTATCATQRLAEFLHRSSSSFGPILPPTDVGSDTY-NH2; disulfide 2-7), the EC50 [1] was 0.33 nM, the EC50 [2] was 1.73 nM and the solubility at 18 h ([3]; bistrispropane buffer, pH 6, pH 6.0, read-out: Solubility pH 6.0) was > 200 µM. For the same molecule, the solubility at 18 h ([3]; bistrispropane buffer, pH 6.5, pH 6.5, read-out: Solubility pH 6.5) was > 200 µM, the solubility at 18 h ([3]; bistrispropane buffer, pH 7, pH 7.0, 18 hours at room temperature, Table 3, read-out: Solubility pH 7.0) was > 200 µM and the solubility at 18 h ([3]; bistrispropane buffer, pH 7, pH 7.0, Table 8, read-out: Solubility pH 7.0) was > 200 µM. The solubility at 18 h ([3]; bistrispropane buffer, pH 7, pH 7.0, Table 9, read-out: Solubility pH 7.0) was > 200 µM, the solubility at 18 h ([3]; bistrispropane buffer, pH 7, pH 7.0, read-out: Solubility pH 7.0) was > 200 µM and the solubility at 18 h ([3]; bistrispropane buffer, pH 7.5, pH 7.5, Table 9, read-out: Solubility pH 7.5) was > 200 µM. For the same molecule, the solubility at 18 h ([3]; bistrispropane buffer, pH 7.5, pH 7.5, read-out: Solubility pH 7.5) was > 200 µM, the solubility at 18 h ([3]; bistrispropane buffer, pH 8, pH 8.0, read-out: Solubility pH 8.0) was > 200 µM and the solubility at 18 h ([3]; glycylglycine buffer, pH 3, pH 3.0, read-out: Solubility pH 3.0) was > 200 µM. The solubility at 18 h ([3]; glycylglycine buffer, pH 4, pH 4.0, 18 hours at room temperature, Table 2, read-out: Solubility pH 4.0) was 116 µM (≈ 514 µg/mL), the solubility at 18 h ([3]; glycylglycine buffer, pH 4, pH 4.0, read-out: Solubility pH 4.0) was 116 µM (≈ 514 µg/mL) and the solubility at 18 h ([3]; pH 5.0, read-out: Solubility pH 5.0) was 5 µM (≈ 22.2 µg/mL). For the same molecule, the EC50 [4] was 0.208 nM and the EC50 [5] was 0.212 nM.
